From US4965280A, “Antifungal carbinols” (E. I. Du Pont de Nemours and Company, priority 1989, dated 1990)
Converted amounts (≈) assume the structure as drawn. Like-named read-outs stand apart in the source and are kept apart here.

Key:
Venturia inaequalis = experiment: Example A apple scab; type: in vivo; conditions: 100 PPM, read-out: disease control rating, Ex. A
Procedure, shortened: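 Spray application to run-off on apple seedlings; compound at 100 or 20 ppm in water with 250 ppm TREM 014 (polyhydric alcohol esters) and 6% acetone of final volume.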

[1] = tested on: Cercosporidium personatum; experiment: Example B Peanut Late Leafspot; type: in vivo; conditions: Nothopassalora personata; 100 PPM; read-out: disease control rating, Ex. B
Procedure, shortened: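 Spray suspensions at 100 or 20 ppm, prepared from acetone solutions (acetone 6% of final volume) in water carrying 250 ppm of a polyhydric alcohol ester surfactant, were applied to peanut seedlings until run-off.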

Botrytis cinerea = experiment: Example C bean grey mold; type: in vivo; conditions: Botrytis cinerea, 24 h, 100 PPM; read-out: disease control rating, Ex. C
Procedure, shortened: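 Spray rates: 100 and 20 ppm. Vehicle: purified water with 6% acetone by final volume plus 250 ppm TREM 014 (polyhydric alcohol esters). Host plants, broad bean seedlings, were wetted until run-off.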

[2] = tested on: Erysiphe graminis f. sp. tritici; experiment: Example D wheat powdery mildew; type: in vivo; conditions: Blumeria graminis, 144 h; 100 PPM; read-out: disease control rating, Ex. D
Procedure, shortened: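 Seedling wheat was treated by spraying to run-off; formulation used acetone as co-solvent (6% final) and TREM 014 surfactant at 250 ppm, with compound at 100 or 20 ppm.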

Pyricularia oryzae = experiment: whole plant or invertebrate; type: in vivo; conditions: Pyricularia oryzae, 120 h, read-out: disease control rating, Ex. E, 100 PPM
Rhizoctonia solani [3] = experiment: Example F rice sheath blight; type: in vivo; conditions: Rhizoctonia solani, 144 h, 100 PPM; read-out: disease control rating, Ex. F
Procedure, shortened: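 Foliar run-off spray, rice seedlings: compound at 100 or 20 ppm in aqueous 250 ppm polyhydric alcohol ester surfactant, acetone 6% v/v final.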

Puccinia recondita = experiment: Example G wheat leaf rust; type: in vivo; conditions: 100 PPM, read-out: disease control rating, Ex. G
Phytophthora infestans = experiment: whole plant or invertebrate; type: in vivo; conditions: Phytophthora infestans, in Solanum lycopersicum, read-out: disease control rating, Ex. H, 100 PPM
Plasmorpara viticola = experiment: Example I grape downy mildew; type: in vivo; conditions: read-out: disease control rating, Ex. I
Procedure, shortened: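 Grape seedlings sprayed to run-off; test suspension 100 or 20 ppm compound, acetone 6% v/v final, 250 ppm TREM 014 in purified water.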

Pythium aphanadermatum = experiment: Example J cucumber damping off; type: in vivo; conditions: Pythium, 336 h; 5 kg/ha; read-out: disease control rating, Ex. J
Procedure, shortened: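 This cucumber damping-off test used soil and seeds infested with a sand–cereal preparation carrying mycelium of Pythium aphanadermatum. Incubation took place in a growth chamber held at 30° C. for 14 days. Afterwards, the extent of disease was scored as a disease control rating.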

Rhizoctonia solani [4] = experiment: Example K cotton blight; type: in vivo; conditions: 336 h, 5 kg/ha, read-out: disease control rating, Ex. K
Method: […] Seeds and soil were then inoculated with a mixture of sand, cereal and mycelium of the fungus Rhizoctonia solani, causal agent of cotton blight, and incubated in a growth chamber at 30° C. for 14 days. Disease ratings were then made.

[5] = tested on: Fusarium oxysporum f. sp. cucumerinum; experiment: Example L cucumber wilt; type: in vivo; conditions: 336 h, 5 kg/ha, read-out: disease control rating, Ex. L
Method: […] Seeds and soil were then inoculated with a mixture of sand, cereal and mycelium of the fungus Fusarium oxysporum f. sp. cucumerinum, causal agent of cucumber wilt, and incubated in a growth chamber at 30° C. for 14 days. Disease ratings were then made.

Sclerotium rolfsii = experiment: Example M southern blight; type: in vivo; conditions: Agroathelia rolfsii, 336 h; 5 kg/ha; read-out: disease control rating, Ex. M
Method: […] Seeds and soil were then inoculated with a mixture of sand, cereal and mycelium of the fungus Sclerotium rolfsii, causal agent of sourthern blight, and incubated in a growth chamber at 30° C. for 14 days. Disease ratings were then made.

[6] = tested on: Candida albicans ATCC 11651; experiment: In vitro antifungal MIC, microtiter broth dilution; conditions: Candida albicans, ATCC11651, 24 h, read-out: MIC values, C. albicans, 30°, 24 hours
Method: In vitro activity (Table 5) is expressed in terms of the minimal inhibitory concentration (MIC) of the test compound which inhibits the growth of yeasts and fungi.
The target organisms, Candida albicans ATCC 11651 and Aspergillus fumigatus ATCC 28214 are standardized, [V. Bezjak, J. Clinical Micro., 21 509-512 (1984)], to a concentration of 10^7 organisms/ml and maintained at -70° until use. Test compounds are solubilized in dimethyl sulfoxide (DMSO) and diluted in Eagle's Minimum Essential Medium (EMEM) broth to achieve a final concentration of 200 μg/ml. Stock solutions of standard antifungal agents are stored at -70° and diluted in EMEM as required.
The in vitro assay utilizes a microtiter broth dilution technique [L. Polonelli and G. Morace, Mycopathologia, 86, 21-28 (1984)] and C. […] The appropriate wells are inoculated with the required organism (C. albicans at 1×10^4 organisms/ml and A. fumigatus at 5×10^5 organisms/ml) and the assay incubated at 30° for 24 hours.

[7] = tested on: Candida albicans ATCC 11651; experiment: In vivo systemic Candida infection in mice, primary assay; design: species or system Candida albicans; CF-1 female mice; conditions: Candida albicans, 150 mg/kg per day, read-out: % Survival
Procedure, shortened: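 CF-1 female mice (20 g, 10 per group) were infected IV with 0.2 ml of 1×10^7/ml C. albicans ATCC 11651, then given test compound subcutaneously at 50 or 150 mg/kg/day at 1 and 6 h post-infection and once daily for three more days. Survival was followed for 21 days against infected untreated mice; ≥70% protection at 14 days was scored active.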

[8] = tested on: Aspergillus fumigatus ATCC 28214; experiment: In vitro antifungal MIC, microtiter broth dilution; conditions: Aspergillus fumigatus, ATCC28214, 24 h, read-out: MIC values, A. fumigatus, 30°, 24 hours

| Structure (SMILES) | pest or weed control at 100 ppm (Venturia inaequalis) [%] | pest or weed control at 100 ppm [1] [%] | pest or weed control at 100 ppm (Botrytis cinerea) [%] | pest or weed control at 100 ppm [2] [%] | pest or weed control at 100 ppm (Pyricularia oryzae) [%] | pest or weed control at 100 ppm (Rhizoctonia solani [3]) [%] | pest or weed control at 100 ppm (Puccinia recondita) [%] | pest or weed control at 100 ppm (Phytophthora infestans) [%] | pest or weed control at 100 ppm (Plasmorpara viticola) [%] | pest or weed control at 5000 g/ha (Pythium aphanadermatum) [%] | pest or weed control at 5000 g/ha (Rhizoctonia solani [4]) [%] | pest or weed control at 5000 g/ha [5] [%] | pest or weed control at 5000 g/ha (Sclerotium rolfsii) [%] | MIC [6] [µg/mL] | responders at 150 mg/kg ([7]; ATCC11651, 168 h, day 7) [%] | responders at 150 mg/kg ([7]; ATCC11651, 336 h, day 14) [%] | responders at 150 mg/kg ([7]; ATCC11651, 504 h, day 21) [%] | MIC [8] [µg/mL] |
| --- | --- | --- | --- | --- | --- | --- | --- | --- | --- | --- | --- | --- | --- | --- | --- | --- | --- | --- |
| C=C(CO)C(O)(Cn1cncn1)c1ccc(Cl)cc1Cl (centres unmarked) [Example 449] | 71 | 0 | 24 | 0 | 76 | 13 | 30 | 0 | 51 | 0 | 0 | 0 | 0 | ≤ 0.4 |  |  |  |  |
| C=C(CO)C(O)(Cn1cncn1)c1ccc(Br)cc1 (centres unmarked) [Example 451] | 16 | 100 | 72 | 0 | 0 | 0 | 0 | 0 | 0 | 0 | 0 | 0 | 0 | 12.5 (≈ 38.6 µM) |  |  |  |  |
| C=C(CO)C(O)(Cn1cncn1)c1ccc(-c2ccccc2)cc1 (centres unmarked) [Example 452] | 36 | 0 | 54 | 46 | 0 | 67 | 30 | 0 | 0 | 0 | 0 | 0 | 0 | > 100 |  |  |  |  |
| C=C(CN(C)C)C(O)(Cn1cncn1)c1ccc(Br)cc1 (centres unmarked) [Example 455] | 64 | 65 | 0 | 12 | 0 | 0 | 43 | 0 | 0 | 0 | 0 | 0 | 0 | 25 (≈ 71.2 µM) |  |  |  |  |
| C=C(CN(C)C)C(O)(Cn1cncn1)c1ccc(-c2ccccc2)cc1 (centres unmarked) [Example 456] | 82 | 0 | 58 | 53 | 98 | 0 | 96 | 9 | 0 | 0 | 0 | 0 | 0 |  |  |  |  |  |
| C=C(c1ccccc1)C(O)(Cn1cncn1)c1ccccc1F (centres unmarked) [Example 594] | 86 | 100 | 93 | 77 | 2 |  | 100 | 0 | 79 | 0 | 60 | 100 | 50 | 0.8 (≈ 2.59 µM) | 70 | 10 | 0 | 0.8 (≈ 2.59 µM) |
| C=C(c1ccccc1)C(O)(Cn1cncn1)c1ccc(F)c(Cl)c1 (centres unmarked) [Example 605] | 70 | 99 | 32 | 81 | 0 |  | 100 | 0 | 0 | 0 | 0 | 0 | 0 | 0.2 (≈ 0.582 µM) |  |  |  | 100 (≈ 291 µM) |
| C=C(c1cc(Cl)cc(Cl)c1)C(O)(Cn1cncn1)c1ccc(F)cc1F (centres unmarked) [Example 815] | 40 | 98 | 0 | 62 | 2 |  | 97 | 0 | 65 | 0 | 0 | 0 | 0 | 0.03 (≈ 0.0757 µM) |  |  |  | > 100 |
| C=C(c1ccc(F)cc1)C(O)(Cn1ncnc1SCC#N)c1ccccc1F (centres unmarked) [Example 1451] | 86 | 84 | 48 | 77 | 2 |  | 93 | 0 | 79 | 0 | 0 | 0 | 0 | > 100 |  |  |  | > 100 |
| N#CC[S+]([O-])c1ncnn1CC(O)(c1ccccc1F)C1(c2ccc(F)cc2)CO1 (centres unmarked) [Example 1468] | 40 | 0 | 0 | 77 | 2 |  | 93 | 0 | 46 | 0 | 60 | 0 | 0 |  |  |  |  |  |
| N#CCS(=O)(=O)c1ncnn1CC(O)(c1ccccc1F)C1(c2ccc(F)cc2)CO1 (centres unmarked) [Example 1469] | 68 | 84 | 81 | 77 | 2 |  | 100 | 24 | 89 | 0 | 80 | 70 | 0 |  |  |  |  |  |
